US7122328B2, “Gene involved in mineral deposition and uses thereof” (The Board of Trustees of the Leland Stanford Junior …, priority 2000, dated 2006)

Tested on: COS cells
Assay: Intracellular/extracellular pyrophosphate levels in transfected COS cells
Format: cell-based
Settings: overexpression in tissue culture cells
From the text: Several protocols have previously been developed for measuring inorganic pyrophosphate in biological samples and any number of these are used in the in vitro assay. Some measure pyrophosphate hydrolysis to orthophosphate by calorimetry (McCarty et al., J. Lab. Clin. Med., 78:216–29 (1971)), while others use labeled substrates that couple with pyrophosphate in enzymatic reactions to determine pyrophosphate levels radiometrically (Cheung and Suhadolnik, Anal. Biochem., 83:61–3 (1977); Caswell and Russell, Biochim. Biophys. Acta, 847:40–7 (1985)). In another type of protocols, inorganic pyrophosphate is subjected to a series of coupled enzymatic phosphorylation and reduction to yield NADPH which can be quantified flourimetrically (Lust and Seegmiller, Clin. Chim. Acta, 66:241–9 (1976)). Although each of these can be used in the assay, the latter protocol is used with described modifications as follows.
COS cells grown in DMEM supplemented with 10% fetal bovine serum, 2 mM GlutaMax (Gibco), 0.1 mM non-essential amino acids, 100 units/ml Penicillin G, and 100 μg/ml Streptomycin are harvested and ˜1–2×10^6 cells are plated on a 100 mm tissue culture dish and incubated overnight at 37° C., 5% CO2. […]

Substance: wild type ANK gene product: wild type ANK protein overexpressed in tissue culture cells; multiple-pass integral membrane protein of 492 amino acids
- extracellular pyrophosphate levels: increase
- intracellular pyrophosphate levels: dramatic reduction
